Values quoted from earlier work in US20200392379A1, “TRANSFER FILM, METHOD FOR MANUFACTURING LAMINATE, LAMINATE, CAPACITIVE INPUT DEVICE, AND IMAGE DISPLAY DEVICE” (FUJIFILM Corporation, priority 2018, published 2020).

SMILES	pKa of conjugate acid
c1ccc2[nH]nnc2c1 [1,2,3-Benzotriazole]	1.17
Sc1nnc(S)s1 [1,3,4-Thiadiazole-2,5-dithiol]	−2.11
O=C(O)CC(C(=O)O)n1nnc2ccccc21 (centres unmarked) [1-(1′,2′-Dicarboxyethyl)benzotriazole]	0.09
O=C(O)CC(Cn1nnc2ccccc21)C(=O)O (centres unmarked) [1-(2,3-Dicarboxypropyl)benzotriazole]	1.21
Cn1nnnc1S [1-Methyl-5-mercaptotetrazole]	−2.98
CCCCC(CC)CN(CC(CC)CCCC)Cn1nnc2ccccc21 (centres unmarked) [1-[N,N-bis(2-ethylhexyl)aminomethyl]benzotriazole]	6.68
Cc1cc(Cn2nnc3ccccc32)c(O)c(Cn2nnc3ccccc32)c1 [2,6-Bis[(1H-benzotriazol-1-yl)methyl]-4-methylphenol]	1.49
CSc1nnc(N)s1 [2-Amino-5-methylthio-1,3,4-thiadiazole]	2.12
Sc1nncs1 [2-Mercapto-1,3,4-thiadiazole]	−1.09
CSc1nnc(S)s1 [2-Mercapto-5-methylthio-1,3,4-thiadiazole]	−1.32
Sc1nc2ccccc2[nH]1 [2-Mercaptobenzimidazole]	2.38
Cc1ncc[nH]1 [2-Methylimidazole]	8.15
CSc1nc(N)n[nH]1 [3-Amino-5-methylthio-1H-1,2,4-triazole]	2.99
Sc1nc[nH]n1 [3-Mercapto-1,2,4-triazole]	1.30
Nc1cnns1 [5-Amino-1,2,3-thiadiazole]	0.34
Nc1nnn[nH]1 [5-Amino-1H-tetrazole]	1.29
Nc1ccc2[nH]c(S)nc2c1 [5-Amino-2-mercaptobenzimidazole]	3.02
Sc1nnnn1-c1ccccc1 [5-Mercapto-1-phenyl-1H-tetrazole]	−4.56
c1ccc(-c2nnn[nH]2)cc1 [5-Phenyl-1H-tetrazole]	−2.88
c1ccc2[nH]cnc2c1 [Benzimidazole]	5.67
